pIC50: −log10 of the molar value.
Target: T1, MAGL (Homo sapiens, UniProt Q99685)
T1 sequence (Q99685 1-303): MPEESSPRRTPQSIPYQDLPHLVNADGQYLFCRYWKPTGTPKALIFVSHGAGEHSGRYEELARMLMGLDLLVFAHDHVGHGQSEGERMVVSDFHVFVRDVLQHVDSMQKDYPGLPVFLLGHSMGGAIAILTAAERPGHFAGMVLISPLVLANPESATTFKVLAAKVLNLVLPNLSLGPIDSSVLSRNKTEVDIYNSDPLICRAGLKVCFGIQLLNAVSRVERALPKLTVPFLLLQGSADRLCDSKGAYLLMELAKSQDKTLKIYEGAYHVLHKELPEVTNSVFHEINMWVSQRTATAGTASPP
Assay: 2-AG assay (MAGL inhibitory activity, hydrolysis of 2-arachidonoylglycerol to arachidonic acid followed by mass spectrometry)
Format: biochemical
Conditions: 8 μM 2-arachidonoylglycerol, 15 min pre-incubation, 30 min incubation at RT, RapidFire MS readout
Outline: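 Human MAGL ([…] final) pre-incubated 15 min at RT with compound in 50 mM TRIS, 1 mM EDTA, 0.01% Tween-20, 2.5% DMSO; 8 μM 2-AG then added for 30 min at RT. Acetonitrile quench with d8-arachidonic acid; arachidonic acid measured by RapidFire SPE–MS/MS, activity from arachidonic acid/d8 ratio.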

| pIC50 | SMILES |
| --- | --- |
| 7.02 | CC(C)(Cc1cccc(OC2CN(C(=O)N3CC4(CC(n5cnc(C6CC6)n5)C4)C3)C2)c1)C(=O)O [Example 299, 3-[3-[1-[6-(3-cyclopropyl-1,2,4-triazol-1-yl)-2-azaspiro[3.3]heptane-2-carbonyl]azetidin-3-yl]oxyphenyl]-2,2-dimethyl-propanoic acid] |
| 7.02 | Cc1oncc1S(=O)(=O)N1CC2(CN(C(=O)N3CC4(CC(n5cnc(C6CC6)n5)C4)C3)C2)C1 [Example 300, [6-(3-cyclopropyl-1,2,4-triazol-1-yl)-2-azaspiro[3.3]heptan-2-yl]-[2-(5-methylisoxazol-4-yl)sulfonyl-2,6-diazaspiro[3.3]heptan-6-yl]methanone] |
| 7.00 | O=C(N1CC(CNS(=O)(=O)c2ccc(F)cc2C(F)(F)F)C1)N1CC2(CC(n3cnc(C4CC4)n3)C2)C1 [Example 302] |
| 7.00 | O=C(N1CC(Oc2cncc(C(F)(F)F)n2)C1)N1CC2(CC(n3cnc(C4CC4)n3)C2)C1 [Example 303, [6-(3-cyclopropyl-1,2,4-triazol-1-yl)-2-azaspiro[3.3]heptan-2-yl]-[3-[6-(trifluoromethyl)pyrazin-2-yl]oxyazetidin-1-yl]methanone] |
| 6.97 | O=C(N1CC2(CC(n3cnc(C4CC4)n3)C2)C1)N1CC2(C1)CN(S(=O)(=O)C(F)(F)F)C2 [Example 304, [6-(3-cyclopropyl-1,2,4-triazol-1-yl)-2-azaspiro[3.3]heptan-2-yl]-[2-(trifluoromethylsulfonyl)-2,6-diazaspiro[3.3]heptan-6-yl]methanone] |
| 6.93 | NC(=O)C(c1ccc(F)cc1)C1CCN(C(=O)N2CC3(CC(n4cnc(C5CC5)n4)C3)C2)CC1 (stereo not drawn) [Example 305, 2-[1-[6-(3-cyclopropyl-1,2,4-triazol-1-yl)-2-azaspiro[3.3]heptane-2-carbonyl]-4-piperidyl]-2-(4-fluorophenyl)acetamide] |
| 6.89 | NC(=O)[C@H](c1ccc(F)cc1)N1CCN(C(=O)N2CC3(CC(n4cnc(C5CC5)n4)C3)C2)CC1 [Example 306, (2S)-2-[4-[6-(3-cyclopropyl-1,2,4-triazol-1-yl)-2-azaspiro[3.3]heptane-2-carbonyl]piperazin-1-yl]-2-(4-fluorophenyl)acetamide] |
| 6.87 | O=C(N1CC(OCc2ccc(S(F)(F)(F)(F)F)cc2)C1)N1CC2(CC(n3cnc(C(F)(F)F)c3)C2)C1 [Example 307, [3-[[4-(pentafluoro-λ^6-sulfanyl)phenyl]methoxy]azetidin-1-yl]-[6-[4-(trifluoromethyl)imidazol-1-yl]-2-azaspiro[3.3]heptan-2-yl]methanone] |
| 6.86 | N#Cc1ccc(S(=O)(=O)N2CC3(CN(C(=O)N4CC5(CC(n6cnc(C7CC7)n6)C5)C4)C3)C2)cc1 [Example 308] |
| 6.83 | COc1ncccc1S(=O)(=O)N1CC2(CN(C(=O)N3CC4(CC(n5cnc(C6CC6)n5)C4)C3)C2)C1 [Example 309, [6-(3-cyclopropyl-1,2,4-triazol-1-yl)-2-azaspiro[3.3]heptan-2-yl]-[2-[(2-methoxy-3-pyridyl)sulfonyl]-2,6-diazaspiro[3.3]heptan-6-yl]methanone] |
| 6.81 | Nc1ncc(S(=O)(=O)N2CC3(CN(C(=O)N4CC5(CC(n6cnc(C7CC7)n6)C5)C4)C3)C2)cn1 [Example 310, [2-(2-aminopyrimidin-5-yl)sulfonyl-2,6-diazaspiro[3.3]heptan-6-yl]-[6-(3-cyclopropyl-1,2,4-triazol-1-yl)-2-azaspiro[3.3]heptan-2-yl]methanone] |
| 6.75 | CNC(=O)C(c1ccccc1)N1CC2(CN(C(=O)N3CC4(CC(n5cnc(C6CC6)n5)C4)C3)C2)C1 (stereo not drawn) [Example 311, 2-[2-[6-(3-cyclopropyl-1,2,4-triazol-1-yl)-2-azaspiro[3.3]heptane-2-carbonyl]-2,6-diazaspiro[3.3]heptan-6-yl]-N-methyl-2-phenyl-acetamide] |
| 6.70 | O=C(NCC(F)(F)F)c1cnn(C2CN(C(=O)N3CC4(CC(n5cnc(C6CC6)n5)C4)C3)C2)c1 [Example 312, 1-[1-[6-(3-cyclopropyl-1,2,4-triazol-1-yl)-2-azaspiro[3.3]heptane-2-carbonyl]azetidin-3-yl]-N-(2,2,2-trifluoroethyl)pyrazole-4-carboxamide] |
| 6.69 | O=C(O)c1ccccc1CN1CC2(C1)CN(C(=O)N1CC3(CC(n4cnc(C5CC5)n4)C3)C1)C2 [Example 313, 2-[[2-[6-(3-cyclopropyl-1,2,4-triazol-1-yl)-2-azaspiro[3.3]heptane-2-carbonyl]-2,6-diazaspiro[3.3]heptan-6-yl]methyl]benzoic acid] |
| 6.64 | CN(C)S(=O)(=O)N1CC2(CN(C(=O)N3CC4(CC(n5cnc(C6CC6)n5)C4)C3)C2)C1 [Example 314, 6-[6-(3-cyclopropyl-1,2,4-triazol-1-yl)-2-azaspiro[3.3]heptane-2-carbonyl]-N,N-dimethyl-2,6-diazaspiro[3.3]heptane-2-sulfonamide] |
| 6.62 | Cc1cn(C2CC3(C2)CN(C(=O)N2CC(OCc4ccc(S(F)(F)(F)(F)F)cc4)C2)C3)cn1 [Example 315, [6-(4-methylimidazol-1-yl)-2-azaspiro[3.3]heptan-2-yl]-[3-[[4-(pentafluoro-26-sulfanyl)phenyl]methoxy]azetidin-1-yl]methanone] |
| 6.61 | O=C(N1CC(Oc2nccc(C(F)(F)F)n2)C1)N1CC2(CC(n3cnc(C4CC4)n3)C2)C1 [Example 316, [6-(3-cyclopropyl-1,2,4-triazol-1-yl)-2-azaspiro[3.3]heptan-2-yl]-[3-[4-(trifluoromethyl)pyrimidin-2-yl]oxyazetidin-1-yl]methanone] |
| 6.56 | O=C(N1CC2(CC(n3cnc(C4CC4)n3)C2)C1)N1CC2(C1)CN(S(=O)(=O)c1cccnc1)C2 [Example 317, [6-(3-cyclopropyl-1,2,4-triazol-1-yl)-2-azaspiro[3.3]heptan-2-yl]-[2-(3-pyridylsulfonyl)-2,6-diazaspiro[3.3]heptan-6-yl]methanone] |
| 6.54 | O=C(N1CC2(CC(n3cnc(C4CC4)n3)C2)C1)N1CC2(C1)CN(S(=O)(=O)N1CCOCC1)C2 [Example 318, [6-(3-cyclopropyl-1,2,4-triazol-1-yl)-2-azaspiro[3.3]heptan-2-yl]-(2-morpholinosulfonyl-2,6-diazaspiro[3.3]heptan-6-yl)methanone] |
| 6.52 | NS(=O)(=O)c1ccc(F)c(CC2CCN(C(=O)N3CC4(CC(n5cnc(C6CC6)n5)C4)C3)CC2)c1 [Example 319] |
| 6.50 | CCCS(=O)(=O)N1CC2(CN(C(=O)N3CC4(CC(n5cnc(C6CC6)n5)C4)C3)C2)C1 [Example 320, [6-(3-cyclopropyl-1,2,4-triazol-1-yl)-2-azaspiro[3.3]heptan-2-yl]-(2-propylsulfonyl-2,6-diazaspiro[3.3]heptan-6-yl)methanone] |
| 6.48 | O=C(N1CCC(NS(=O)(=O)c2ccc(C(F)(F)F)cc2)CC1)N1CC2(CC(n3cnc(C4CC4)n3)C2)C1 [Example 321, N-[1-[6-(3-cyclopropyl-1,2,4-triazol-1-yl)-2-azaspiro[3.3]heptane-2-carbonyl]-4-piperidyl]-4-(trifluoromethyl) benzenesulfonamide] |
| 6.47 | O=C(N1CC(Oc2nnccc2C(F)(F)F)C1)N1CC2(CC(n3cnc(C4CC4)n3)C2)C1 [Example 322, [6-(3-cyclopropyl-1,2,4-triazol-1-yl)-2-azaspiro[3.3]heptan-2-yl]-[3-[4-(trifluoromethyl)pyridazin-3-yl]oxyazetidin-1-yl]methanone] |
| 6.44 | NC(=O)c1ccccc1S(=O)(=O)N1CC2(CN(C(=O)N3CC4(CC(n5cnc(C6CC6)n5)C4)C3)C2)C1 [Example 323, 2-[[6-[6-(3-cyclopropyl-1,2,4-triazol-1-yl)-2-azaspiro[3.3]heptane-2-carbonyl]-2,6-diazaspiro[3.3]heptan-2-yl]sulfonyl]benzamide] |
| 6.40 | O=C(O)c1ccc(S(=O)(=O)N2CC3(CN(C(=O)N4CC5(CC(n6cnc(C7CC7)n6)C5)C4)C3)C2)cc1 [Example 324] |
| 6.32 | O=C(N1CCC(CNS(=O)(=O)c2ccccc2)CC1)N1CC2(CC(n3cnc(C4CC4)n3)C2)C1 [Example 325, N-[[1-[6-(3-cyclopropyl-1,2,4-triazol-1-yl)-2-azaspiro[3.3]heptane-2-carbonyl]-4-piperidyl]methyl]benzene-sulfonamide] |
| 6.23 | NC(=O)[C@@H](c1ccc(F)cc1)N1CCN(C(=O)N2CC3(CC(n4cnc(C5CC5)n4)C3)C2)CC1 [Example 326, (2R)-2-[4-[6-(3-cyclopropyl-1,2,4-triazol-1-yl)-2-azaspiro[3.3]heptane-2-carbonyl]piperazin-1-yl]-2-(4-fluorophenyl)acetamide] |
| 6.21 | O=C(O)c1ccc(F)c(S(=O)(=O)N2CC3(CN(C(=O)N4CC5(CC(n6cnc(C7CC7)n6)C5)C4)C3)C2)c1 [Example 327] |
| 6.17 | CCc1ncnn1C1CC2(C1)CN(C(=O)N1CC3(CC(Cc4ccc(F)cc4F)C3)C1)C2 [Example 328, [6-[(2,4-difluorophenyl)methyl]-2-azaspiro[3.3]heptan-2-yl]-[6-(5-ethyl-1,2,4-triazol-1-yl)-2-azaspiro[3.3]heptan-2-yl]methanone] |
| 6.13 | O=C(N1CC2(CC(n3cnc(C4CC4)n3)C2)C1)N1CC2(C1)CN(S(=O)(=O)CC(F)(F)F)C2 [Example 329, [6-(3-cyclopropyl-1,2,4-triazol-1-yl)-2-azaspiro[3.3]heptan-2-yl]-[2-(2,2,2-trifluoroethylsulfonyl)-2,6-diazaspiro[3.3]heptan-6-yl]methanone] |
